Patent US9193744B2, “Heterocyclic nuclear hormone receptor modulators” (AbbVie Inc., priority 2012, dated 2015)
pIC50: −log10 of the molar value. Read-outs that look alike come from different tables or passages of the source.

What was measured:
[1] = target: T1, Glucocorticoid Receptor (GR) (Homo sapiens, UniProt P04150); assay: GR Fluorescence Polarization Assay (PolarScreen Glucocorticoid Receptor Competitor Assay, Red); settings: fluorescence polarization binding ranges
T1 construct: purchased Invitrogen P2893
T1 sequence (P04150 1-777): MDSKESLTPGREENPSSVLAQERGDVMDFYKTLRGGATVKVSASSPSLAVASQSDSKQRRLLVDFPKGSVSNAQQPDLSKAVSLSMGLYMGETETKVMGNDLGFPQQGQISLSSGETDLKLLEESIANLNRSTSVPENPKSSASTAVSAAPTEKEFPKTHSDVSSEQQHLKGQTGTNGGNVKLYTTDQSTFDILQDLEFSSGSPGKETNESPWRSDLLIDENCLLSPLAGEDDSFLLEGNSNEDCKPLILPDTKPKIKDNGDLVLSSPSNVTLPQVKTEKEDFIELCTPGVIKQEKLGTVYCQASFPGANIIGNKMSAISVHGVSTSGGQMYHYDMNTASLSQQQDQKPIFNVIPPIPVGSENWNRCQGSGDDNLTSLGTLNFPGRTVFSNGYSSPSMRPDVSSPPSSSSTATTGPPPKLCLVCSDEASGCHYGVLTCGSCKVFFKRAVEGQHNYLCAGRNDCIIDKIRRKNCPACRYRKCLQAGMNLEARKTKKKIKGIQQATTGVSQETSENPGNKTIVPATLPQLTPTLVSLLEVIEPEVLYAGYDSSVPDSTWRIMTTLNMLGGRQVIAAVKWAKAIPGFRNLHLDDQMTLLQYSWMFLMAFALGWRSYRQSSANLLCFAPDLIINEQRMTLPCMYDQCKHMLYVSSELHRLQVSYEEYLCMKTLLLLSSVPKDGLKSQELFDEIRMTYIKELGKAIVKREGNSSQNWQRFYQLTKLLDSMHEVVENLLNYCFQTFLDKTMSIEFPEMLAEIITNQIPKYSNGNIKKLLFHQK
How it was run: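 Competitive fluorescence polarization using a red fluorescent glucocorticoid tracer and GR in kit buffer. Compounds in 1:4 DMSO serial dilution, incubated with tracer and receptor overnight at 4° C before polarization read-out.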

IL-6 = assay: A549 Cell Assay to Measure Inflammation Markers (inhibition of IL-1β-induced IL-6); assay type: cell-based; settings: A549 cells, read-out: A549 cell assay
How it was run: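 A549 cells pre-incubated 1 h with compound (10-point dilution, 0.1% DMSO final) in charcoal-stripped serum medium, then stimulated 4 h with 1 ng/mL IL-1β at 37° C. Supernatant IL-6 measured by MSD immunoassay; IC50 and Emax relative to 1 μM prednisolone as 100% inhibition; viability checked by CellTiter-Glo.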

OCN = assay: MG-63 Cell Assay to Measure Bone Markers (inhibition of Vitamin K/Vitamin D-induced OCN); assay type: cell-based; settings: Homo sapiens, MG63 cells
Protocol: MG-63 Cell Assay to Measure Bone Markers
MG-63 cells were cultured in culture media containing ascorbic acid (DMEM/F12 supplemented with 10% FBS, 1% HEPES, 100 U/mL-100 μg/mL Pen-Strep, and 100 μg/mL of ascorbic acid) for, minimally, 1 week before study. MG-63 cells were seeded (4E4 cells/well) in 96-well assay plates in culture medium (200 μL/well.) After overnight culture in an incubator set to 37° C., 4.9% CO2, and 90% humidity, media was removed from adherent cells by aspiration and replaced with 100 μL/well assay medium, DMEM/F12 supplemented with 5% Charcoal Stripped Serum, 1% HEPES, 100 U/mL-100 μg/mL Pen-Strep, and 100 μg/mL of ascorbic acid. Compounds were prepared with DMSO and serial diluted (1:3, 1:4, or 1:5) with DMSO in dilution plate(s) to give 10 dilution points for each compound tested. Further dilution (1:250) of compound was made into assay medium and 50 μL/well diluted drug or DMSO/media control was applied to cells. After a 1 h pre-incubation in a temperature, CO2, and humidity controlled incubator, set to 37° C., 50 μL/well of 40 nM Vitamin K and 400 nM Vitamin D that were diluted in assay media were applied to plates. Assay plates, with a final volume of 200 μL/well and final concentrations of 0.1% DMSO, 10 nM Vitamin K, and 100 nM Vitamin D, were returned to incubator for overnight culture. Next, plates were spun at 183 g (1000 rpm in Beckman/Coulter Allegra 6KR centrifuge) for 10 min. Cell-free supenatant (150 μL/well) was collected and OCN was measured by MSD kit, following protocol of manufacturer, and using MSD SECTOR Imager 6000 instrument. Potency of drug to inhibit OCN was determined using the percent reduction of measured OCN in wells with drug compared to control wells without drug, and relative to (100% inhibition) positive control sample of 10 μM prednisolone. Results were represented as IC50 and Emax values. To verify that viable cell numbers were similar across plate(s), and not confounding compound IC50 data interpretation, the remaining 50 μL/well of cells and media (after removal of supernatant) were used to run Cell Titer-Glo Assay per directions of manufacturer.

Row | pIC50 [1] | pIC50 (IL-6; Homo sapiens) | pIC50 (OCN) | pIC50 (IL-6) | Molecule
1 | > 7.00 | > 7.00 | > 7.00 | – | CC[C@@]12CC[C@@](O)(C(F)(F)F)C[C@@H]1CCCc1cc3c(cnn3-c3ccc(F)cc3)cc12 (racemic) [Example 1, (3S,4aS,12bR)-12b-Ethyl-9-(4-fluoro-phenyl)-3-trifluoromethyl-1,2,3,4,4a, 5,6,7,9,12b-decahydro-9,10-diaza-benzo[3,4]cyclohepta[1,2-f]inden-3-ol; compound with (3R,4aR,12bS)-12b-ethyl-9-(4-fluoro-phenyl)-3-trifluoromethyl-1,2,3,4,4a,5,6,7,9,12b-decahydro-9,10-diaza-benzo[3,4]cyclohepta[1,2-f]inden-3-ol]
2 | > 7.00 | 6.00 to 7.00 | > 7.00 | – | CCC[C@]1(O)CC[C@@]2(CC)c3cc4cnn(-c5ccc(F)cc5)c4cc3CCC[C@@H]2C1 (racemic) [Example 4, (3S,4aR,12bR)-12b-Ethyl-9-(4-fluoro-phenyl)-3-propyl-1,2,3,4,4a,5,6,7,9,12b-decahydro-9,10-diaza-benzo[3,4]cyclohepta[1,2-f]inden-3-ol; compound with (3R,4aS,12bS)-12b-ethyl-9-(4-fluoro-phenyl)-3-propyl-1,2,3,4,4a,5,6,7,9,12b-decahydro-9,10-diaza-benzo[3,4]cyclohepta[1,2-f]inden-3-ol]
3 | > 7.00 | > 7.00 | > 7.00 | – | COC[C@@]1(O)CC[C@@]2(Cc3ccccn3)c3cc4cnn(-c5ccc(F)cc5)c4cc3CCC[C@H]2C1 (racemic) [Example 11]
4 | > 7.00 | < 5.00 | < 5.00 | – | CC[C@@]12CC[C@](O)(COC)C[C@@H]1CCCc1cc3[nH]ncc3cc12 (racemic) [Example 14, (3R,4aS,12bR)-12b-Ethyl-3-methoxymethyl-1,2,3,4,4a,5,6,7,9,12b-decahydro-9,10-diaza-benzo[3,4]cyclohepta[1,2-f]inden-3-ol; compound with (3S,4aR,12bS)-12b-ethyl-3-methoxymethyl-1,2,3,4,4a,5,6,7,9,12b-decahydro-9,10-diaza-benzo[3,4]cyclohepta[1,2-f]inden-3-ol]
5 | > 7.00 | > 7.00 | 6.00 to 7.00 | – | CC[C@@]12CC[C@@](O)(C(F)(F)F)C[C@@H]1CCCc1cc3c(cnn3-c3ccc(F)cc3)cc12 (single isomer, unassigned) [Example 3]
6 | > 7.00 | 6.00 to 7.00 | < 5.00 | – | CCC[C@]1(O)CC[C@@]2(CC)c3cc4cnn(-c5ccc(F)cc5)c4cc3CCC[C@@H]2C1 (single isomer, unassigned) [Example 5]
7 | > 7.00 | > 7.00 | < 5.00 | – | CC[C@@]12CC[C@@](O)(COC)C[C@H]1CCCc1cc3c(cnn3-c3ccc(F)cc3)cc12 (single isomer, unassigned) [Example 7]
8 | > 7.00 | 6.00 to 7.00 | < 5.00 | – | CCOC[C@]1(O)CC[C@@]2(CC)c3cc4cnn(-c5ccc(F)cc5)c4cc3CCC[C@@H]2C1 (single isomer, unassigned) [Example 9]
9 | > 7.00 | > 7.00 | > 7.00 | – | COC[C@@]1(O)CC[C@@]2(Cc3ccccn3)c3cc4cnn(-c5ccc(F)cc5)c4cc3CCC[C@H]2C1 (single isomer, unassigned) [Example 12]
10 | > 7.00 | > 7.00 | > 7.00 | – | COC[C@]1(O)CC[C@]2(Cc3ccccn3)c3cc4cnn(-c5ccc(F)cc5)c4cc3CCC[C@@H]2C1 (single isomer, unassigned) [Example 13]
11 | > 7.00 | – | – | 6.00 to 7.00 | (2S,3R,4aS,12bS)-12b-ethyl-9-(4-fluorophenyl)-3-(trifluoromethyl)-1,2,3,4,4a,5,6,7,9,12b-decahydrobenzo[6,7]cyclohepta[1,2-f]indazole-2,3-diol [Example 120]
